The text below walks through data of ChEMBL document CHEMBL1133894, “Design and synthesis of a highly selective EP4-receptor agonist. Part 2: 5-thia and 9beta-haloPG derivatives with improved stability” (Bioorg Med Chem Lett, 2001).

As usually defined, the Ki is a dissociation constant, usually derived from enzyme kinetics or from competition with a known ligand. The EC50 is the concentration at which the effect is half-maximal. In general, ED50 refers to the midpoint of the dose-response relation. Lower therefore signals greater potency.

The target in assay [1] is Prostacyclin receptor (Homo sapiens, UniProt P43119). Put plainly: Affinity for human Prostanoid IP receptor expressed in CHO cells. In kind it is cell-based.
Sequence of Prostacyclin receptor (P43119 whole entry): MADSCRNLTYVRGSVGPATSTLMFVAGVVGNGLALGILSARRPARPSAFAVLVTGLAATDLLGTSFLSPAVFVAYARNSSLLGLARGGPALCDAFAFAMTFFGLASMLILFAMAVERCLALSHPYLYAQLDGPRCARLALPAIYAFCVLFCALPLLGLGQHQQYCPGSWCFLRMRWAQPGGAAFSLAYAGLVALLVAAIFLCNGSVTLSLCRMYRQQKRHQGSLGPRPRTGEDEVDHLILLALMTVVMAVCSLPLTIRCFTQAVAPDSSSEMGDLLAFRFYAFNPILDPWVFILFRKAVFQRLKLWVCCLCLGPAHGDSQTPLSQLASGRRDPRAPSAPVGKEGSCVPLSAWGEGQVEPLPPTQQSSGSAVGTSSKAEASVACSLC
Assay [2] addresses T1, Prostaglandin E2 receptor EP4 subtype (Mus musculus, UniProt P32240). Briefly: Effective concentration for increased intracellular c-AMP production by mouse Prostanoid EP4 receptor. In kind it is functional, cell-based.
Assay [3] has as its target Prostaglandin E2 receptor EP2 subtype (Mus musculus, UniProt Q62053). Put plainly: Affinity for mouse Prostanoid EP2 receptor expressed in CHO cells. In kind it is cell-based.
In assay [4] the target is T1, Prostaglandin E2 receptor EP4 subtype. Briefly: Affinity for mouse Prostanoid EP4 receptor expressed in CHO cells. In kind it is cell-based.
The target in assay [5] is T2, Prostaglandin E2 receptor EP1 subtype (Mus musculus, UniProt P35375).
T2 sequence (P35375 whole entry): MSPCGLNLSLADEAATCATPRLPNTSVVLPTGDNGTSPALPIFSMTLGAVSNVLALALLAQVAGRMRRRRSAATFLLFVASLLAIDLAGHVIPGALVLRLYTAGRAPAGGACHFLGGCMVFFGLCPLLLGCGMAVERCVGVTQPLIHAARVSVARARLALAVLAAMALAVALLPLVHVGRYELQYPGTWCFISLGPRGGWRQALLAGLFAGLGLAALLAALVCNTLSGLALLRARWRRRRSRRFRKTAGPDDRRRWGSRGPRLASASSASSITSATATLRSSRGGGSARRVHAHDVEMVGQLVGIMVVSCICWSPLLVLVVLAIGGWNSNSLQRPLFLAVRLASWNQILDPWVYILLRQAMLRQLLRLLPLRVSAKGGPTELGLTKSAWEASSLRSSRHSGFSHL
Put plainly: Affinity for mouse Prostanoid EP1 receptor expressed in CHO cells. The format is cell-based.

Assay [6] addresses T3, Prostaglandin E2 receptor EP3 subtype (Mus musculus, UniProt P30557).
T3 sequence (P30557 whole entry): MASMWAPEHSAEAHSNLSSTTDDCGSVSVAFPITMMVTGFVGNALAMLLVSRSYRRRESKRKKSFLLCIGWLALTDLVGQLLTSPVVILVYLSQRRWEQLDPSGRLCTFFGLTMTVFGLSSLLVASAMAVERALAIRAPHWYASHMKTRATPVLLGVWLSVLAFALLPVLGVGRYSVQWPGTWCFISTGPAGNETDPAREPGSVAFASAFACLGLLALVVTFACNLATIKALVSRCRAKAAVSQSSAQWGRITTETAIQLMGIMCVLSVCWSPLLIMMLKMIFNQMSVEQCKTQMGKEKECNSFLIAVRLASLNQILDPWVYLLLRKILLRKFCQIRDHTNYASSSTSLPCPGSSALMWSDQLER
Briefly: Affinity for mouse Prostanoid EP3 receptor expressed in CHO cells. In kind it is cell-based.

The subject of assay [7] is Rattus norvegicus. Put plainly: Suppression of production of plasma TNF-alpha after intravenous infusion of 10, 30, 100 and 300 ng/kg/min; significant. The format is functional, organism-based.
The species entered for assay [8] is Rattus norvegicus. Put plainly: Stimulation of Uterine motility which mediates the EP3-receptor in rats. The format is functional.

Structures are written as SMILES.

Sequence of Prostaglandin E2 receptor EP2 subtype (Q62053 whole entry): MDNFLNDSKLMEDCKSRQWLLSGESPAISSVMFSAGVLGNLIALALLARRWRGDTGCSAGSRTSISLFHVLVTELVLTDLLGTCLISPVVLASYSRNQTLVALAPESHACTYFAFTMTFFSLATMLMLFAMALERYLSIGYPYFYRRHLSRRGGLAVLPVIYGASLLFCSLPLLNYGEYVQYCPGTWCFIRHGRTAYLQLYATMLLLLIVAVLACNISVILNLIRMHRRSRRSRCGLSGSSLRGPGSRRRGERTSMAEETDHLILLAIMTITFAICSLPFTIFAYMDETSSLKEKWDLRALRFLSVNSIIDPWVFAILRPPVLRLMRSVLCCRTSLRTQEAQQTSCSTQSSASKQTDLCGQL
T1 sequence (P32240 whole entry): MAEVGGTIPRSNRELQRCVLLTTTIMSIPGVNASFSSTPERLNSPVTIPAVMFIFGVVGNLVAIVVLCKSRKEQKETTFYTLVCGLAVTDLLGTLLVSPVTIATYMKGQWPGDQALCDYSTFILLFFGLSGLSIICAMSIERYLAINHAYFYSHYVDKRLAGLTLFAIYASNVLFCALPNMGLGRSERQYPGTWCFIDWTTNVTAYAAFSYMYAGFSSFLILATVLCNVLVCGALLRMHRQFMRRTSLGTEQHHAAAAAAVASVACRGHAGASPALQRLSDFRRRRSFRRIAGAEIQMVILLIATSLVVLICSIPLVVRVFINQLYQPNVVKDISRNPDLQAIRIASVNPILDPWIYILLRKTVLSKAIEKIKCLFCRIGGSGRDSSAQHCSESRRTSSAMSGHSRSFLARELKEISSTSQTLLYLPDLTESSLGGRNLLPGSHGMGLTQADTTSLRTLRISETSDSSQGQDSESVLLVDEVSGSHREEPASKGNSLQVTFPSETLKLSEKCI

`COCc1cccc(C[C@H](O)/C=C/[C@@H]2[C@@H](CCCCCCC(=O)O)[C@H](Cl)C[C@H]2O)c1`: the inhibition constant (Ki) is more than 10 µM in assay [1]; 0.37 µM in assay [3]; 0.0027 µM in assay [4]; 5.4 µM in assay [5]; 0.74 µM in assay [6]. The compound also yielded an EC50 in assay [2] of 0.16 µM.

`COCc1cccc(C[C@H](O)/C=C/[C@H]2[C@H](O)CC(=O)[C@@H]2CCSCCCC(=O)O)c1`: the Ki was more than 10 µM in assay [1]; 0.62 µM in assay [3]; 0.0007 µM in assay [4]; more than 10 µM in assay [5]; 0.056 µM in assay [6]. In assay [2], this compound returned a half-maximal effective concentration (EC50) of 0.0016 µM.

With `COCc1cccc(C[C@H](O)/C=C/[C@H]2[C@H](O)CC(=O)[C@@H]2CCSCCCC(=O)OC)c1` [RIVENPROST], the Supression result in assay [7] is given as “significant”. This compound showed an ED50 in assay [8] of more than 300 mg/kg.

For `CCCCC[C@H](O)/C=C/[C@H]1[C@H](O)CC(=O)[C@@H]1CCCSCCC(=O)O`, the Ki turned out to be 0.92 µM in assay [1]; 0.34 µM in assay [3]; 0.011 µM in assay [4]; 0.027 µM in assay [5]; 0.0037 µM in assay [6]. The concentration for a half-maximal effect (EC50) in assay [2] turned out to be 1 µM.

Consider `Cc1cc(C[C@H](O)/C=C/[C@H]2[C@H](O)CC(=O)[C@@H]2CCSCCCC(=O)O)ccc1O`, for which the Ki in assay [1] was more than 10 µM; in assay [3], 7.4 µM; in assay [4], 0.0049 µM. The EC50 in assay [2] stood at 0.02 µM.

For `CCCCC[C@H](O)/C=C/[C@H]1[C@H](O)CC(=O)[C@@H]1CCCCCCC(=O)O` [ALPROSTADIL], the inhibitory constant (Ki) was more than 10 µM in assay [1], 0.022 µM in assay [3], 0.0031 µM in assay [4] and 0.006 µM in assay [5]. The compound further had an EC50 in assay [2] of 0.0036 µM.

In the case of `COCc1cccc(C[C@H](O)/C=C/[C@@H]2[C@@H](C/C=C/CCCC(=O)O)[C@H](Cl)C[C@H]2O)c1`, the Ki in assay [1] is more than 10 µM; in assay [3], 0.012 µM; in assay [4], 0.0005 µM; in assay [5], 0.98 µM; in assay [6], 0.092 µM. Also, it took 0.0033 µM to reach a half-maximal effect in assay [2] (EC50).

For the compound `Cc1cc(C[C@H](O)/C=C/[C@@H]2[C@@H](C/C=C/CCCC(=O)O)[C@H](Cl)C[C@H]2O)ccc1O`, the Ki in assay [1] was more than 10 µM; in assay [3], 0.29 µM; in assay [4] it was 0.0077 µM; in assay [5] it was 3.1 µM; in assay [6], 2.2 µM. Moreover, the EC50 in assay [2] came out at 0.044 µM.

Take `COCc1cccc(C[C@H](O)/C=C/[C@@H]2[C@@H](CCSCCCC(=O)O)[C@H](F)C[C@H]2O)c1`: the Ki in assay [1] was more than 10 µM; in assay [3] it was 3.1 µM; in assay [4], 0.032 µM. In addition, the response in assay [2] was half-maximal at 0.27 µM (EC50).

Regarding `CCCCC[C@H](O)/C=C/[C@H]1[C@H](O)CC(=O)[C@@H]1CCSCCCC(=O)O`, the Ki in assay [1] stood at 0.75 µM; in assay [3], 0.075 µM; in assay [4], 0.0005 µM; in assay [5], 0.052 µM; in assay [6] it was 0.0019 µM. This compound also came in with an EC50 in assay [2] of 0.0036 µM.

Regarding `COCc1cccc(C[C@H](O)/C=C/[C@@H]2[C@@H](C/C=C/CCCC(=O)O)[C@H](F)C[C@H]2O)c1`, the inhibition constant Ki was more than 10 µM in assay [1]; 0.058 µM in assay [3]; 0.0034 µM in assay [4]; 1.7 µM in assay [5]; 0.094 µM in assay [6]. Also, the half-maximal effective concentration (EC50) in assay [2] was determined as 0.014 µM.

On to `CCCCC[C@H](O)/C=C/[C@H]1[C@H](O)CC(=O)[C@@H]1CCCCSCC(=O)O`, for which the Ki is more than 10 µM in assay [1]; 0.049 µM in assay [3]; 0.0021 µM in assay [4]; 0.2 µM in assay [5]; 0.0012 µM in assay [6]. In addition, the EC50 in assay [2] was 0.046 µM.

In the case of `CCCCC[C@H](O)/C=C/[C@H]1[C@H](O)CC(=O)[C@@H]1CSCCCCC(=O)O`, the inhibition constant (Ki) in assay [1] came to 1.4 µM; in assay [3] it was 0.091 µM; in assay [4], 0.0087 µM; in assay [5] it was 0.095 µM; in assay [6] it was 0.002 µM. For the same compound, the 50% effective concentration (EC50) in assay [2] stood at 1 µM.
